Measurements published in patent US20260007133A1, “HERBICIDAL COMPOSITION COMPRISING AZINE COMPOUNDS” (BASF SE, priority 2022, published 2026).
Like-named read-outs stand apart in the source and are kept apart here.

How the values were obtained:
Assay type in all cases: in vivo
Avena fatua = assay: Greenhouse pre-emergence (PRE) herbicidal test on AVEFA; conditions: use rate 4 gai/ha
How it was run: (§1)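 Seeds sown per species in pots of loamy sand with approx. 3.0% humus; compounds suspended or emulsified in water were sprayed via fine nozzles directly after sowing. Pots were watered and hooded until rooted, held at 10-25° C. or 20-35° C. by species, and scored 0–100 (100 = no emergence/complete destruction) 20 DAT.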

Brachiaria decumbens = assay: Greenhouse pre-emergence (PRE) herbicidal test on BRADC; conditions: Urochloa decumbens, PRE, BRADC, use rate 1 gai/ha
How it was run: as §1

Euphorbia heterophylla [1] = assay: Greenhouse pre-emergence (PRE) herbicidal test on EPHHL
How it was run: (§2)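 Seeds were sown per species in pots of loamy sand with about 3.0% humus, treated pre-emergence, watered and hooded until rooted. Plants grew at 10-25° C or 20-35° C depending on species. Damage was scored 0-100 (100 = no emergence or above-ground parts destroyed) at 20 DAT.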

Ipomoea hederacea = assay: Greenhouse pre-emergence (PRE) herbicidal test on IPOHE; conditions: PRE, IPOHE, 20 DAT
How it was run: as §1

Lolium multiflorum = assay: Greenhouse pre-emergence (PRE) herbicidal test on LOLMU; conditions: Lolium multiflorum, pre-emergence; for inhibition at 1 g/ha: use rate 1 gai/ha
How it was run: as §2

Polygonum convolvulus = assay: Greenhouse pre-emergence (PRE) herbicidal test on POLCO; conditions: Fallopia convolvulus, pre-emergence, use rate 1 gai/ha
Description: (§3) The culture containers used were plastic pots containing loamy sand with approximately 3.0% of humus as substrate. The seeds of the test plants were sown separately for each species.
For the pre-emergence treatment, the active compounds, suspended or emulsified in water, were applied directly after sowing by means of finely distributing nozzles. The containers were irrigated gently to promote germination and growth and subsequently covered with transparent plastic hoods until the plants had rooted. This cover caused uniform germination of the test plants unless this was adversely affected by the active compounds.
(§4) Depending on the species, the plants were kept at 10-25° C. and 20-35° C., respectively.
(§5) The test period extended over 2 to 4 weeks. During this time, the plants were tended and their response to the individual treatments was evaluated.
(§6) Evaluation was carried out using a scale from 0 to 100. 100 means no emergence of the plants, or complete destruction of at least the above-ground parts, and 0 means no damage or normal course of growth. A good herbicidal activity is given at values of at least 70, and very good herbicidal activity is given at values of at least 85.
(§7) If not stated differently, the respective components A and B, and if appropriate, C were formulated as a 5% by weight strength emulsion concentrate and, with addition of the amount of solvent system, introduced into the spray liquor used for applying the active compound.
(§8) As indicated application was either post emergent (POST) at the respective growth stage (GS) of the weed (BBCH code), or pre-emergent (PRE).
(§9) Assessment was 20 days after treatment (DAT).

Commelina benghalensis = assay: Greenhouse post-emergence (POST) herbicidal test on COMBE; conditions: 480 h, use rate 16 gai/ha, 20 DAT
Procedure: as §3
(§10) For the post-emergence treatment, the test plants were grown to a plant height of from 3 to 15 cm, depending on the plant habit, and only then treated with the active compounds which had been suspended or emulsified in water. To this end, the test plants were either sown directly, and grown in the same containers, or they were first grown separately as seedlings and transplanted into the test containers a few days prior to treatment.
as §4, §5, §6, §7, §8, §9

Echinochloa crus-galli = assay: Greenhouse post-emergence (POST) herbicidal test on ECHCG; conditions: Echinochloa crus-galli, post-emergence; for inhibition at 1 g/ha: use rate 1 gai/ha
How it was run: (§11)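 Weeds grown in loamy sand (~3.0% humus) to 3–15 cm were sprayed post-emergence with compounds suspended or emulsified in water, formulated as 5% emulsion concentrates. Plants were kept at 10-25 °C or 20-35 °C by species. Damage was scored 0–100 (100 = complete destruction) at 20 DAT.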

Euphorbia heterophylla [2] = assay: Greenhouse post-emergence (POST) herbicidal test on EPHHL; conditions: Euphorbia heterophylla, post-emergence, POST, EPHHL; for inhibition at 2 g/ha: use rate 2 gai/ha, read-out: % activity
How it was run: as §11

Setaria viridis = assay: Greenhouse post-emergence (POST) herbicidal test on SETVI; conditions: 480 h, 20 DAT
Procedure: as §3, §10, §4, §5, §6, §7, §8, §9

SETFA = assay: Greenhouse pre-emergence (PRE) herbicidal test on SETFA; conditions: Setaria faberi, use rate 1 gai/ha

COc1c(F)cc(F)c(F)c1Nc1nc(N)nc(C(C)(C)F)n1 [Compound I-1]
inhibition at 4 g/ha (Avena fatua): 70% | inhibition at 1 g/ha (Brachiaria decumbens): 0% | % activity (Euphorbia heterophylla [1]; EPHHL PRE, use rate 4 gai/ha): 20% | inhibition at 16 g/ha (Euphorbia heterophylla [1]; Euphorbia heterophylla, pre-emergence, 480 h, PRE, EPHHL, use rate 16 gai/ha, 20 DAT): 60% | inhibition at 4 g/ha (Euphorbia heterophylla [1]; Euphorbia heterophylla, pre-emergence, EPHHL PRE, use rate 4 gai/ha): 25% | inhibition at 1 g/ha (Euphorbia heterophylla [1]; Euphorbia heterophylla, pre-emergence, PRE, EPPHL, use rate 1 gai/ha, read-out: % activity): 0% | inhibition at 4 g/ha (Euphorbia heterophylla [1]; Euphorbia heterophylla, pre-emergence, PRE, EPPHL, use rate 4 gai/ha): 70% | inhibition at 8 g/ha (Ipomoea hederacea; Ipomoea hederacea, pre-emergence, 480 h, use rate 8 gai/ha): 70% | inhibition at 16 g/ha (Ipomoea hederacea; Ipomoea hederacea, pre-emergence, 480 h, use rate 16 gai/ha): 75% | % activity (Ipomoea hederacea; use rate 16 gai/ha): 60% | inhibition at 1 g/ha (Lolium multiflorum; 480 h, PRE, LOLMU, 20 DAT): 40% | inhibition at 2 g/ha (Lolium multiflorum; 480 h, PRE, LOLMU, use rate 2 gai/ha, 20 DAT, read-out: % activity): 50% | inhibition at 1 g/ha (Lolium multiflorum; LOLMU PRE): 20% | inhibition at 4 g/ha (Lolium multiflorum; LOLMU PRE, use rate 4 gai/ha): 85% | inhibition at 1 g/ha (Lolium multiflorum; PRE, LOLMU): 35% | inhibition at 1 g/ha (Polygonum convolvulus): 50% | inhibition at 16 g/ha (Commelina benghalensis): 75% | inhibition at 4 g/ha (Echinochloa crus-galli; 480 h, POST, ECHCG, use rate 4 gai/ha, 20 DAT): 0% | inhibition at 1 g/ha (Echinochloa crus-galli; ECHCG POST, read-out: % activity): 30% | inhibition at 1 g/ha (Echinochloa crus-galli; POST, ECHCG, read-out: % activity): 10% | inhibition at 2 g/ha (Echinochloa crus-galli; POST, ECHCG, use rate 2 gai/ha, read-out: % activity): 10% | inhibition at 2 g/ha (Euphorbia heterophylla [2]; 480 h, 20 DAT): 50% | inhibition at 4 g/ha (Euphorbia heterophylla [2]; 480 h, use rate 4 gai/ha, 20 DAT): 60% | inhibition at 2 g/ha (Euphorbia heterophylla [2]): 40% | inhibition at 2 g/ha (Setaria viridis; use rate 2 gai/ha): 5% | inhibition at 4 g/ha (Setaria viridis; use rate 4 gai/ha): 70% | inhibition at 1 g/ha (SETFA): 60%
